Assay [1] concerns primary B-CLL leukemia cells. As to the kind of experiment: Direct cell killing of primary leukemia cell preparations, PI flow cytometry. The format is cell-based, human. Particulars: peptides with TAT sequence at C-terminal, 20 hours, 50 µM concentration. The protocol:
FIG. 8 is a histogram depicting cell death of B-CLL leukemia cells by mortalin peptides. […] Mortalin peptides numbers 2, 7, 8, 10, 14 and 16 and a scrambled control peptide (PC) were tested. […] Following, the cells were labeled with PI and analyzed by Flow Cytometry. Percent of dead cells (PI positive) was calculated.
FIG. 9 is a histogram depicting cell death of B-CLL leukemia cells by mortalin peptides. […] Mortalin peptides numbers 2, 7, 8, 10, 14 and 16 and a scrambled control peptide (PC) were tested. […] Following, the cells were labeled with PI and analyzed by Flow Cytometry. Percent of dead cells (PI positive) was calculated.
FIG. 10 is a histogram depicting cell death of B-CLL leukemia cells by mortalin peptides. […] Following, the cells were labeled with PI and analyzed by Flow Cytometry. Percent of dead cells (PI positive) was calculated.
FIG. 11 is a histogram depicting cell death of B-CLL leukemia cells and normal mononuclear cells by mortalin peptides. […] Following, the cells were labeled with PI and analyzed by Flow Cytometry. Percent of dead cells (PI positive) was calculated.
Blood drawing from B-CLL patients was approved by the Helsinki Committee of Rabin Medical Center, Petach Tikvah, Israel. […] The cells were treated for 20 hours with the peptides at […] concentration and cell death was determined by propidium iodide labeling and analysis by flow cytometry. […]
In general terms: A flow cytometer gives signals particle by particle.

A further assay has as its target mortalin-C9 binding (Homo sapiens, UniProt P02748). As to the kind of experiment: ELISA of mortalin binding to C9 with or without mortalin peptides. Also on record: key: ↑: enhance; ↓: inhibit; ↑↓: effect depends on dose/time; —: no effect. Particulars: summary of in vitro effects. The protocol:
FIG. 1 is a histogram depicting results of ELISA (enzyme-linked immunosorbent assay) which detected binding of mortalin to C9 in the presence or absence of various mortalin peptides. Purified human C9 (0.057 μM) was attached overnight at 4° C. to wells of a 96-wells plate and then the excess of C9 was washed. Following, His-tagged recombinant mortalin (0.007 μM) was added to the wells for 1 hour at 37° C. with or without the designated peptides (each at a concentration of 170 μM), which were dissolved in 1% BSA (bovine serum albumin). Following incubation with the mortalin and peptides the wells were washed, treated for 1 hour at 37° C. with mouse anti-His antibody (diluted 1:1000) followed by 1 hour incubation at room temperature with peroxidase-labeled goat anti-mouse IgG (diluted 1:10,000), developed with O-phenylenediamine (OPD) and analyzed by an ELISA reader at 492 nm. […]
Methods of detecting the binding between mortalin and C9 are known in the art [Pilzer et al. Int Immunol (2005) 17:1239-1248; Pilzer et al. Int J Cancer (2010). […] After incubation of the C9 and mortalin, the excess of the labeled mortalin and of the peptide is removed by washing the plate, and the amount of labeled mortalin which is bound to the surface-attached C9 protein is determined using an anti-His antibody (e.g., a mouse anti-His antibody). […]
A general note: In an ELISA, binding on a coated surface is turned into a signal by an enzyme label.

The subject of assay [2] is leukemia and lymphoma cell lines. Briefly: Direct cell killing / direct toxicity (complement independent), overall statement. The format is cell-based. The arrangement: key: ↑: enhance; ↓: inhibit; ↑↓: effect depends on dose/time; —: no effect. To be noted: summary of in vitro effects; complement independent cytotoxicity; cell lines and primary B-CLL cells. The protocol: The toxic effect of these peptides was tested on 3 leukemia/lymphoma cell lines Raji (FIG. 5), Ramos (FIG. 6) and Z-138 (FIG. 7). The cells were treated for 24 hours with the peptides and cell death was determined by propidium iodide labeling and analysis by flow cytometry.
In summary, Table 6 below illustrates the relative effects of some of the peptides on mortalin-C9 binding, C9 polymerization, complement-dependent cytotoxicity and complement independent cytotoxicity (direct toxicity).

Assay [3] has as its system K562 cells. As to the kind of experiment: Complement independent cytotoxicity, Annexin V/PI, FACS. The format is cell-based, human. To be noted: stand-alone treatment, 0.8 mM, 24 hours. The method, then: Raji or K562 cells were treated without (C) or with 2 mM peptides for 48 hours in their culture medium. Then, the cells were labeled with Annexin/PI and analyzed by Flow Cytometry. FIG. 3A—a histogram depicting the percent of dead cells (Annexin and PI positive) as calculated. FIGS. 3B-D—representative images of cells in control (FIG. 3B) and peptide-treated groups [FIG. 3C (treated with peptide no. 14) and FIG. 3D (treated with peptide no. 16)] stained by DAPI and observed under a fluorescence microscope.
(§1) The complement independent cytotoxic effect of the peptides—To address the toxic effect of the peptides as single agents, the present inventor tested the effect of the peptides no. 14 and 16 on K562 and Raji human cancer cells. The cells were incubated with the peptides for 24-48 hours in growth medium and then tested for apoptosis using an Annexin V/PI (Propidium Iodide) staining kit followed by FACS analysis.

In another assay the test system is Raji cells. Described as above. The format is cell-based, human. To be noted: stand-alone treatment, 0.8 mM, 24 hours.
Description: Then, the cells were labeled with Annexin/PI and analyzed by Flow Cytometry. FIG. 3A—a histogram depicting the percent of dead cells (Annexin and PI positive) as calculated. FIGS. 3B-D—representative images of cells in control (FIG. 3B) and peptide-treated groups [FIG. 3C (treated with peptide no. 14) and FIG. 3D (treated with peptide no. 16)] stained by DAPI and observed under a fluorescence microscope.
as §1

A further assay has as its target Purified human C9 (Homo sapiens, UniProt P02748). Briefly: Zinc-induced C9 polymerization, SDS-PAGE/Coomassie. It counts as biochemical. The protocol:
FIGS. 2A-B are Coomassie blue stained gels depicting inhibition of C9 polymerization by mortalin or the isolated mortalin peptides. Purified human C9 ([…]) was mixed for 15 minutes at 37° C. with BSA ([…]) as control (lanes marked as “BSA”), mortalin ([…], lanes marked as “mot”) or mortalin peptides (1 mM, lanes marked by “p” and the indicated peptide numbers) that were freshly dissolved in Tris buffered saline (TBS); and then incubated with 42 μM ZnCl2 for 2 hours at 37° C. The first lane on the left, marked “C9” refers to a positive control of the purified C9 without BSA, without mortalin or without the isolated peptides. Samples were subjected to SDS-PAGE on a 2.5-14% acrylamide gradient gel and stained with Coomassie blue. The bands of poly C9 appearing on the top part of the gel are indicated. FIGS. 2A and 2B represent two independent experiments.
The effect of the peptides on C9 polymerization—Formation of the complement membrane pores requires that multiple C9 molecules undergo polymerization and generate the doughnut-shape transmembrane complex; thus the effect of the peptides on C9 polymerization was tested. C9 polymerization occurs during C5b-9 generation [Podack and Tschopp, Proc Natl Acad Sci USA. (1982) 79(2):574-8]. […] C9 was mixed with peptides and 42 μM ZnCl2 for 2 hours and the samples were analyzed by SDS-PAGE, on a 2.5-14% acrylamide gradient gel. […]

Assay [4] has as its system K562 cells. As to the kind of experiment: Complement-dependent cytotoxicity (CDC), antibody + normal human serum, PI inclusion/FACS. Particulars: summary of in vitro effects. The format is cell-based. The method, then:
K562 cells were either pre-incubated with peptides (60 minutes at 37° C.) and then treated with Rabbit anti-K562 polyclonal antiserum (Ab) and normal human serum (as a source for complement) or treated with Ab and complement in presence of the peptide [Ziporen et al. J. Immunol. (2009) 182: 515-21]. Cell death was measured by PI (Propidium Iodide) inclusion and FACS analysis, after 1 hour treatment at 37° C. The effect of the peptides on complement-dependent cytotoxicity—The next objective was to determine which of the peptides could alter cell death and sensitize cancer cells to complement-dependent cytotoxicity (CDC). Thus, cells were incubated with the peptides prior to antibody and complement treatment (denoted herein as pre-incubation) or treated concomitantly with antibody and complement in the presence of the peptides (denoted herein as without pre-incubation). It should be noted that in cases where the peptide was incubated with the cells prior to addition of the antibody and complement (serum) (noted as “preincubation”) cell cytotoxicity begins as complement independent, and then, upon addition of the antibody and complement can continue as complement dependent. […]

Purified human C9, sequence (P02748 22-559): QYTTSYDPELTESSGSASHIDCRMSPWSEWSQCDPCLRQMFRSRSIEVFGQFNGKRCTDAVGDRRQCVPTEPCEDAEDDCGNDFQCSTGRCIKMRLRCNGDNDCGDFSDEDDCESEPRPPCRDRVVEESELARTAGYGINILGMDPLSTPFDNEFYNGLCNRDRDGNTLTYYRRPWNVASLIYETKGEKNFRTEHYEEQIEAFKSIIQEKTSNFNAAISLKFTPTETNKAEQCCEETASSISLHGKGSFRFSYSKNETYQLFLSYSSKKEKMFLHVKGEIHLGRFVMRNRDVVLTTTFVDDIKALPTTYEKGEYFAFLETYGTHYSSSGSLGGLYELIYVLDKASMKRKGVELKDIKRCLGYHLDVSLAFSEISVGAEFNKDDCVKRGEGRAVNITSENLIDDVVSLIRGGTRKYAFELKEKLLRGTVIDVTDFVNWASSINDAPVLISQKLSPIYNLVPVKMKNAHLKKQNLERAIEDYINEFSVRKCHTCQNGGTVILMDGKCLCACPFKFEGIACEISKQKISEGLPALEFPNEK
mortalin-C9 binding, sequence (P02748 22-559): as above

Consider `CSCC[C@H](NC(=O)[C@H](Cc1ccc(O)cc1)NC(=O)[C@H](CC(C)C)NC(=O)[C@H](CCC(=O)O)NC(=O)[C@H](CO)NC(=O)[C@H](CCCCN)NC(=O)[C@H](C)NC(=O)[C@H](CCCCN)NC(=O)[C@H](CCC(=O)O)NC(=O)[C@H](C)NC(=O)[C@H](C)NC(=O)[C@H](CCC(=O)O)NC(=O)[C@H](CCCNC(=N)N)NC(=O)[C@@H](NC(=O)[C@H](CCCNC(=N)N)NC(=O)[C@H](CCC(N)=O)NC(=O)[C@H](CC(C)C)NC(=O)[C@H](C)NC(=O)[C@H](CCSC)NC(=O)[C@@H](N)CC(N)=O)C(C)C)C(=O)NCC(=O)N[C@@H](CCCNC(=N)N)C(=O)N[C@@H](CCCCN)C(=O)N[C@@H](CCCCN)C(=O)N[C@@H](CCCNC(=N)N)C(=O)N[C@@H](CCCNC(=N)N)C(=O)N[C@@H](CCC(N)=O)C(=O)N[C@@H](CCCNC(=N)N)C(=O)N[C@@H](CCCNC(=N)N)C(=O)N[C@@H](CCCNC(=N)N)C(=O)O` [Peptide 8, NMALQRVREAAEKAKSEL], for which the “cell killing effect on primary leukemia cells” value in assay [1] is given as “cell killing effect”. Also, at mortalin-C9 binding, the Mortalin-C9 binding entry is recorded as “—”. Moreover, in assay [2], the Direct toxicity entry is reported as “↑ (*)—”.
In the case of “MVKNAEKYAEEDRYMGRKKRRQRRR (synthetic peptide (TAT modified peptide 14)) [TAT-peptide no: 14]”, the “capacity to induce apoptosis, TAT-modified versus native peptide no: 14” value with K562 cells [3] and in the assay on Raji cells was “markedly enhanced the capacity of peptide no: 14 to induce apoptosis” each time.
For the molecule “Mortalin: human mortalin protein, member of the HSP70 family (SEQ ID NO: 24), recombinant”, in the assay with Purified human C9 (peptides 1 mM, mortalin 1.4 mM, 42 μM ZnCl2, 2 hours, 37° C., poly C9 band on gel), the “effect on C9 polymerization” value is “completely inhibited C9 polymerization”. Moreover, the C9 polymerization entry with Purified human C9 (summary of in vitro effects) is “↓↓↓”. The Direct toxicity result in assay [2] is listed as “—”. Also, the “Effect on CDC” value in the assay with K562 cells [4] is recorded as “↓↓↓”.

Values taken from patent publication US20170355736A1, “MORTALIN PEPTIDES AND ANTIBODIES AND USES THEREOF FOR INHIBITING MORTALIN ACTIVITY AND TREATING A DISEASE ASSOCIATED WITH A PATHOLOGICAL CELL” (Ramot at Tel-Aviv University Ltd., priority 2014, published 2017).
